Results published in US9416129B2, “Tricyclic substituted thiadiazine dioxide compounds as BACE inhibitors, compositions and their use” (Merck Sharp & Dohme Corp., priority 2012, dated 2016).
pKi: −log10 of the molar value.

What was measured:
[1] = biological target: soluble human BACE1 catalytic domain (Homo sapiens (Human), UniProt P56817); assay: BACE1 HTRF FRET assay; format: biochemical; conditions: Ki calculated from IC50 using the Cheng-Prusoff equation
Source text: Na^+-Acetate pH 5.0; 1% Brij-35; Glycerol; Dimethyl Sulfoxide (DMSO); Recombinant human soluble BACE1 catalytic domain (>95% pure); APP Swedish mutant peptide substrate (QSY7-APP^swe-Eu): QSY7-[…]-Europium-amide.
A homogeneous time-resolved FRET assay can be used to determine IC50 values for inhibitors of the soluble human BACE1 catalytic domain. This assay monitors the increase of 620 nm fluorescence that resulted from BACE1 cleavage of an APPswedish APP^swe mutant peptide FRET substrate (QSY7-[…]-Europium-amide). This substrate contains an N-terminal QSY7 moiety that serves as a quencher of the C-terminal Europium fluorophore (620 nm Em). In the absence of enzyme activity, 620 nm fluorescence is low in the assay and increased linearly over 3 hours in the presence of uninhibited BACE1 enzyme Inhibition of BACE1 cleavage of the QSY7-APP^swe-Eu substrate by inhibitors is manifested as a suppression of 620 nm fluorescence.
Varying concentrations of inhibitors at 3× the final desired concentration in a volume of 10 ul are preincubated with purified human BACE1 catalytic domain (3 nM in 10 μl) for 30 minutes at 30° C. in reaction buffer containing 20 mM Na-Acetate pH 5.0, 10% glycerol, 0.1% Brij-35 and 7.5% DSMO. Reactions are initiated by addition of 10 μl of 600 nM QSY7-APP^swe-Eu substrate (200 nM final) to give a final reaction volume of […] in a 384 well Nunc HTRF plate. The reactions are incubated at 30° C. for 1.5 hours. The 620 nm fluorescence is then read on a Rubystar HTRF plate reader (BMG Labtechnologies) using a 50 millisecond delay followed by a 400 millisecond acquisition time window. Inhibitor IC50 values are derived from non-linear regression analysis of concentration response curves.

[2] = biological target: human autoBACE-2 (Homo sapiens (Human), UniProt Q9Y5Z0); assay: BACE-2 assay (BACE-HTRF, time-resolved endpoint proteolysis); format: biochemical; conditions: Ki calculated from IC50 using the Cheng-Prusoff equation; read-out: BACE2 Ki
Chain of human autoBACE-2 (Q9Y5Z0 63-473 limits assumed): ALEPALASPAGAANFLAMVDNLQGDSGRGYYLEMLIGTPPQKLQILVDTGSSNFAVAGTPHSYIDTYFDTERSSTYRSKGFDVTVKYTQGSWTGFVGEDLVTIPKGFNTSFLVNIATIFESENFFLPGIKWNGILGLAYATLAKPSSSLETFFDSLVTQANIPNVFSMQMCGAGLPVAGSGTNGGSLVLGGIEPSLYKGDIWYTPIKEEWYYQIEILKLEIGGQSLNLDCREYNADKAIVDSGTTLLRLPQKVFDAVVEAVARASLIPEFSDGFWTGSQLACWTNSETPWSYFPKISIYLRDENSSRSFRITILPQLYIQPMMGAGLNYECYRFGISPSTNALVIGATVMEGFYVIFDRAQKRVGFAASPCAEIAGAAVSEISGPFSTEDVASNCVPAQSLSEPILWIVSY
Procedure: Inhibitor IC50s at purified human autoBACE-2 are determined in a time-resolved endpoint proteolysis assay that measures hydrolysis of the QSY7-[…]-Eu-amide FRET peptide substrate (BACE-HTRF assay). […] DMSO is present at 5% final concentration in the assay. Following laser excitation of sample wells at 320 nm, the fluorescence signal at 620 nm is collected for 400 ms following a 50 μs delay on a RUBYstar HTRF plate reader (BMG Labtechnologies). Raw RFU data is normalized to maximum (1.0 nM BACE/DMSO) and minimum (no enzyme/DMSO) RFU values. […] The Ki values are calculated from the IC50 using the Cheng-Prusoff equation.

Chain of soluble human BACE1 catalytic domain (P56817 75-416): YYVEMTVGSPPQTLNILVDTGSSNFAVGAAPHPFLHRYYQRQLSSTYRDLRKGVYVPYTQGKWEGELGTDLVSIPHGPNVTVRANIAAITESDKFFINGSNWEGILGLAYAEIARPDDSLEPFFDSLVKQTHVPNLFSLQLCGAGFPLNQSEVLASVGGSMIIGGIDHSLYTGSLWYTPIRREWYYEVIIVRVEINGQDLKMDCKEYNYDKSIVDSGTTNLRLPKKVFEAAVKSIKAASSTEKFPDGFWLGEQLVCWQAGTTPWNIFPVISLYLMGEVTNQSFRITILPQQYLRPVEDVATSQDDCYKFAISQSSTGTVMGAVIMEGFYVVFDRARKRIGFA

SMILES	pKi [1]	pKi [2]
CN1C(=N)N[C@](C)(c2sc3c(-c4ccc(-c5ncco5)cc4)nccc3c2Cl)CS1(=O)=O [Example 100]	6.94	6.65
Cc1nnc(-c2cccc(-c3cc(Cl)c([C@]4(C)CS(=O)(=O)N(C)C(=N)N4)s3)c2)o1 [Example 53]	6.89	–
CN1C(=N)N[C@](C)(c2sc(-c3ccc(-n4nccn4)cc3)cc2Cl)CS1(=O)=O [Example 67]	5.64	6.26
Cc1noc(-c2cc(-c3cc(Cl)c([C@]4(C)CS(=O)(=O)N(C)C(=N)N4)s3)ccn2)n1 [Example 49]	7.73	8.96
CN1C(=N)N[C@](C)(c2cc(-c3cc(F)cc(-c4nnco4)c3)cs2)CS1(=O)=O [Example 43]	8.06	8.19
CN1C(=N)N[C@](C)(c2sc3c(-c4cnc(-n5cccn5)nc4)nccc3c2Cl)CS1(=O)=O [Example 97]	7.21	7.19
CN1C(=N)N[C@](C)(c2cc(-c3cccc(-c4nnco4)c3)cs2)CS1(=O)=O [Example 19]	7.72	7.28
Cc1nsc(C2CCN(c3nccc4c(Cl)c([C@]5(C)CS(=O)(=O)N(C)C(=N)N5)sc34)CC2)n1 [Example 122]	6.05	6.39
Cc1noc(-c2cc(-c3cc(F)c([C@]4(C)CS(=O)(=O)N(C)C(=N)N4)s3)ccn2)n1 [Example 50]	7.25	8.64
CN1C(=N)N[C@](C)(c2sc(-c3ccnc(-n4cccn4)c3)cc2F)CS1(=O)=O [Example 77]	6.79	7.16
CN1C(=N)N[C@](C)(c2sc(-c3ccnc(-n4ccnc4)c3)cc2F)CS1(=O)=O [Example 76]	6.95	7.28
CN1C(=N)N[C@](C)(c2sc(-c3ccc(-n4ccnn4)cc3)cc2Cl)CS1(=O)=O [Example 71]	5.80	6.18
CN1C(=N)N[C@](C)(c2sc(-c3ccc(F)c(-c4nnco4)c3)cc2F)CS1(=O)=O [Example 34]	8.17	7.96
CN1C(=N)N[C@](C)(c2sc(-c3cccc(-n4ccnc4)n3)cc2Cl)CS1(=O)=O [Example 68]	6.37	7.11
CN1C(=N)N[C@](C)(c2sc(-c3cc(-c4nnco4)ccc3F)cc2F)CS1(=O)=O [Example 32]	8.96	8.41
CCc1cnn(-c2ccc(-c3nccc4c(Cl)c([C@]5(C)CS(=O)(=O)N(C)C(=N)N5)sc34)c(F)c2)c1 [Example 118]	6.64	6.15
CN1C(=N)N[C@](C)(c2sc(-c3cc(-c4nnco4)ncc3F)cc2Cl)CS1(=O)=O [Example 58]	7.17	7.18
CN1C(=N)N[C@](C)(c2sc(-c3cncc(-c4cnco4)c3)cc2F)CS1(=O)=O [Example 21]	7.74	7.80
CN1C(=N)N[C@](C)(c2sc(-c3cncc(-c4cnco4)c3)cc2Cl)CS1(=O)=O [Example 20]	7.92	8.05
CN1C(=N)N[C@](C)(c2sc(-c3cc(-c4nnco4)ncc3F)cc2F)CS1(=O)=O [Example 59]	6.97	7.04
CN1C(=N)N[C@](C)(c2sc(-c3cccc(-n4cccn4)c3)cc2Cl)CS1(=O)=O [Example 60]	7.24	8.80
CN1C(=N)N[C@](C)(c2sc(-c3ccnc(-c4nc(C5CC5)no4)c3)cc2Cl)CS1(=O)=O [Example 51]	6.90	8.60
CN1C(=N)N[C@](C)(c2sc(-c3cncc(-c4nnco4)c3)cc2F)CS1(=O)=O [Example 3]	8.12	7.59
CN1C(=N)N[C@](C)(c2sc(-c3cccc(-n4nccn4)c3)cc2Cl)CS1(=O)=O [Example 63]	7.52	8.33
CN1C(=N)N[C@](C)(c2sc(-c3ccnc(-c4cncnc4)c3)cc2F)CS1(=O)=O [Example 55]	5.90	6.67
CN1C(=N)N[C@](C)(c2ncc(-c3cccc(-c4ncco4)c3)s2)CS1(=O)=O [Example 26]	7.36	8.24
CN1C(=N)N[C@](C)(c2sc3c(-c4cnc(C5CC5)nc4)nccc3c2Cl)CS1(=O)=O [Example 78]	6.79	7.64
Cc1nnc(-c2cccc(-c3cc(Cl)c([C@]4(C)CS(=O)(=O)N(C)C(=N)N4)s3)c2)o1 [Example 15]	–	8.42

Now from value to compound:

pKi [1]	pKi [2]	SMILES
7.52	6.02	CN1C(=N)N[C@](C)(c2sc3c(-c4ccc(-n5cccn5)cc4)nccc3c2Cl)CS1(=O)=O [Example 102]
7.50	6.96	CN1C(=N)N[C@](C)(c2sc3c(-c4ccc(-n5cccn5)cc4F)nccc3c2Cl)CS1(=O)=O [Example 116]
9.06	9.20	CN1C(=N)N[C@](C)(c2sc(-c3cccc(-c4ncno4)c3)cc2F)CS1(=O)=O [Example 48]
6.54	6.66	CN1C(=N)N[C@](C)(c2sc3c(-c4ccc(-c5cnn(C)c5)cc4F)nccc3c2Cl)CS1(=O)=O [Example 112]
8.00	7.51	CN1C(=N)N[C@](C)(c2sc3c(-c4ccc(-n5cccn5)nc4)cccc3c2F)CS1(=O)=O [Example 87]
5.19	5.33	CN1C(=N)N[C@](C)(c2sc3c(-c4ccc(N5CCS(=O)(=O)CC5)cc4)cccc3c2F)CS1(=O)=O [Example 85]
7.22	7.52	CN1C(=N)N[C@](C)(c2sc(-c3cccc(-c4nnco4)c3F)cc2Cl)CS1(=O)=O [Example 35]
5.42	5.58	CN1CCN(c2ccc(-c3cccc4c(F)c([C@]5(C)CS(=O)(=O)N(C)C(=N)N5)sc34)cn2)CC1 [Example 93]
5.04	5.42	Cc1cnc(-c2ccc(-c3cccc4c(F)c([C@]5(C)CS(=O)(=O)N(C)C(=N)N5)sc34)cc2)nc1 [Example 88]
7.03	7.21	CN1C(=N)N[C@](C)(c2sc3c(-c4ccc(-c5ccc(F)cc5F)nc4)cccc3c2F)CS1(=O)=O [Example 82]
5.56	5.60	Cc1cnn(-c2cc(-c3cc(F)c([C@]4(C)CS(=O)(=O)N(C)C(=N)N4)s3)ccn2)c1 [Example 75]
5.79	7.07	CN1C(=N)N[C@](C)(c2sc3c(-c4ccc(-c5nccn5C)cc4)nccc3c2Cl)CS1(=O)=O [Example 105]
6.63	8.38	Cc1nnc(-c2cccc(-c3cc(F)c([C@]4(C)CS(=O)(=O)N(C)C(=N)N4)s3)c2)o1 [Example 16]
5.37	6.47	CN1C(=N)N[C@](C)(c2sc(-c3ccc(-c4ncco4)cc3)cc2Cl)CS1(=O)=O [Example 69]
6.74	5.77	CN1C(=N)N[C@](C)(c2sc3c(-c4ccc(C5CC(=O)N5)cc4)cccc3c2F)CS1(=O)=O (stereo partly shown) [Example 81]
6.55	7.66	CN1C(=N)N[C@](C)(c2sc3c(-c4ccc(C5CC5)nc4)nccc3c2Cl)CS1(=O)=O [Example 79]
7.63	7.70	CN1C(=N)N[C@](C)(c2sc(-c3ccnc(-c4cnco4)c3)cc2F)CS1(=O)=O [Example 56]
6.21	8.02	CN1C(=N)N[C@](C)(c2sc(-c3cccc(-c4nc(C5CC5)no4)c3)cc2F)CS1(=O)=O [Example 40]
–	7.02	Cc1nonc1N1CCN(c2nccc3c(Cl)c([C@]4(C)CS(=O)(=O)N(C)C(=N)N4)sc23)CC1 [Example 120]
6.08	6.76	CN1C(=N)N[C@](C)(c2sc(-c3ccc(-c4nccs4)cc3)cc2Cl)CS1(=O)=O [Example 70]
7.43	7.17	CN1C(=N)N[C@](C)(c2sc3c(-c4ccc(-n5cccn5)cc4)cccc3c2F)CS1(=O)=O [Example 89]
6.95	6.35	Cc1cocc1-c1ccc(-c2nccc3c(Cl)c([C@]4(C)CS(=O)(=O)N(C)C(=N)N4)sc23)c(F)c1 [Example 110]
8.19	8.62	CN1C(=N)N[C@](C)(c2sc(-c3cccc(-c4ccno4)c3)cc2Cl)CS1(=O)=O [Example 13]
6.02	6.94	CN1C(=N)N[C@](C)(c2sc3c(-c4ccc(C5CC(=O)N5)cc4)nccc3c2Cl)CS1(=O)=O (stereo partly shown) [Example 101]
5.23	5.74	CN1C(=N)N[C@](C)(c2sc(-c3ccc(N4CCOCC4)nc3)cc2Cl)CS1(=O)=O [Example 66]
